EC50 data for two compounds are collected here from BindingDB's records for doi:10.7270/Q2125R3Z (Burnham Center For Chemical Genomics, 2010).

In this experiment the target is Delta-type opioid receptor (Homo sapiens, UniProt P41143). In words: DOR agonists, SAR follow-up, image-based (AID 2370).
Delta-type opioid receptor, sequence (P41143 whole entry): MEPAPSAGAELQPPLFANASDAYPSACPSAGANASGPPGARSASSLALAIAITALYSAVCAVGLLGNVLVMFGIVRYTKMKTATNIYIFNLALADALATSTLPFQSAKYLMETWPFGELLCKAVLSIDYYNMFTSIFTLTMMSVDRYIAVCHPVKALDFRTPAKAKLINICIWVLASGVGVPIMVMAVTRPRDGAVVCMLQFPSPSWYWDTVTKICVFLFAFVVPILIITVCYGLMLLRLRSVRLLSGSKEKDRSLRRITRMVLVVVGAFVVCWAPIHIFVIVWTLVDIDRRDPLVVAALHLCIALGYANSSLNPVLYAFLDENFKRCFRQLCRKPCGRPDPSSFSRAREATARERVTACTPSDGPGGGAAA

As to `Oc1ccc(CN=Nc2ccnc3cc(Cl)ccc23)cc1O` [(4Z)-4-[[2-(7-chloroquinolin-4-yl)hydrazinyl]methylidene]-2-hydroxycyclohexa-2,5-dien-1-one], the concentration giving a half-maximal response (EC50) was more than 32 µM. For `CCC(N=Nc1ccnc2cc(Cl)ccc12)c1ccc(O)cc1` (configuration not stated) [4-[1-[2-(7-chloroquinolin-4-yl)hydrazinyl]propylidene]cyclohexa-2,5-dien-1-one] the value was 30.7 µM.

By EC50 is commonly meant the concentration needed to bring the measured effect to its halfway point. Higher therefore signals lower potency in that assay.
